Data set [1] can be described thus: Intrinsic dissolution rate, Rotation Disc Method (USP 1087). Particulars: 37° C., 100 rpm, average of two measurements. It counts as physicochemical. Here is the method:
The raloxifene hydrochloride salt used in these experiments was purchased from Otto Bradt GmbH (batch MA/RF/12003) while the rest of the raloxifene acid additions salts were prepared according to Example 1-6.
The experiments were carried out following the procedure of Rotation Disc Method (USP 1087) using Vankel VK 7000 Intrinsic dissolution apparatus (Vankel Technology group, W. Vankelion) equipped with Vankel 12-4120 intrinsic disc having a surface area of 0.5 cm^2, Vankel 12-4130 surface plate, Vankel 12-4140 punch, and Vankel shaft and holder (surface area: 0.5 cm^2) and operating at a rotation rate of 100 rpm.
The buffer solution is handled in a 750 ml measuring bottle, degassed and transferred into a dissolution vessel. Approximately 100 mg compound is weighed out and transferred into an intrinsic disc. Said disc is then assembled, and to said disc a disc is applied in the IR-press at a pressure of 5 kN for 1 minute. The disc is started and samples of 10 ml are collected by use of “pressure vials” after 1, 10, 20, 30, 45, and 60 minutes. The change of volume is corrected using the equation: Q=Vs×(sumCn−1)+Cn×Vt wherein Q designates the volume at the time t, C designates the concentration of the sample n, Vt designates the volume of the liquid collected at the time t, and Vs designates the volume of the sample collected. The sample is measured against a standard using HPLC. In these measurements a 5 microns 3.9×150 mm column filled with symmetrical material is employed and as eluant a 20 mM phosphate buffer KH2PO4, pH 6.8 mixed with acetonitrile and tetrahydrofuran in the ratio 55:35:10 is used.
The standard is prepared by use of following procedure: 20 mg of salt is dissolved initially in 100 ml of MeOH and then 1 ml of this solution is transferred to a 50 ml flask with water and then 2 ml to a 20 ml flask of buffer in question.
pH 1: a 0.1 M HCl is used.
0.025 M Phosphate buffer solution pH 2.0: 3.40 g of potassium dihydrogen phosphate is dissolved in 900 ml of water. Then pH is adjusted to 2.0 with phosphoric acid and diluted to 1000.0 ml with water. Exactly 5.85 g of NaCl is added to 1 L of buffer.
0.025 M Phosphate buffer solution pH 3.0: 3.40 g of potassium dihydrogen phosphate is dissolved in 900 ml of water. Then pH is adjusted to 3.0 with phosphoric acid and diluted to 1000.0 ml with water. Exactly 5.85 g of NaCl is added to 1 L of buffer.
0.022 M Phosphate buffer solution pH 4.0: 3.0 g of potassium dihydrogen phosphate is dissolved in 800 ml of water. Then pH is adjusted with 1 M potassium hydroxide and phosphoric acid and diluted to 1000.0 ml with water. Exactly 5.85 g of NaCl is added to 1 L of buffer. 0.02 M Phosphate buffer solution pH 5.0: 2.72 g of potassium dihydrogen phosphate is dissolved in 800 ml of water. Then pH is adjusted with 1 M potassium hydroxide and diluted to 1000.0 ml with water. Exactly 5.85 g of NaCl is added to 1 L of buffer.

A short description of data set [2]: Dissolution test in dilute acid, evaluated visually. It counts as physicochemical. Here is the method: 60 mg raloxifene HCl was transferred to a dissolution vessel containing one liter 0.1 M HCl. The mixture was vigorously mixed and left at room temperature over night. Subsequently the dissolution was evaluated visually.
A similar dissolution test was performed using 60 mg raloxifene hydrochloride in 0.1 M phosphoric acid.

For data set [3] the following is noted: cited from earlier work.
A short description of data set [4]: Solubility in aqueous solvents/media (general statement). The class given is physicochemical. Particulars: versus aqueous media.
Setting [5] is: Hydrochloride, pH 1 (0.1 M HCl).
The mark [6] stands for this setting: Phosphate, pH 2, chloride 0.1 M.
[7] abbreviates: Phosphate, pH 3, chloride 0.1 M.
Where [8] appears, read: Phosphate, pH 4, chloride 0.1 M.
[9] abbreviates: Phosphate, pH 5, chloride 0.1 M.

Structures can show the parent of a compound that is named as a salt. Where two headings read alike, the source gives them in different places.

On to `C[C@H](O)C(=O)O.O=C(c1ccc(OCCN2CCCCC2)cc1)c1c(-c2ccc(O)cc2)sc2cc(O)ccc12` [L-Lactate ¼-hydrate], for which the “intrinsic dissolution rate (IDR)” value in data set [1] (setting [5]) came to 0.0035 μmol/min * cm^2; in data set [1] (setting [6]) it was 0.0028 μmol/min * cm^2; in data set [1] (setting [7]), 0.0067 μmol/min * cm^2; in data set [1] (setting [8]) it was 0.0324 μmol/min * cm^2; in data set [1] (setting [9]), 0.0247 μmol/min * cm^2.
On the same counts, the results for `CC(O)C(=O)O.O=C(c1ccc(OCCN2CCCCC2)cc1)c1c(-c2ccc(O)cc2)sc2cc(O)ccc12` [DL-lactate hemihydrate, [6-hydroxy-2-(4-hydroxyphenyl)benzo[b]thien-3-yl][4-[2-(1-piperidinyl)ethoxy]phenyl-, DL-lactate] are 0.0056 μmol/min * cm^2, 0.0119 μmol/min * cm^2, 0.0062 μmol/min * cm^2, 0.0212 μmol/min * cm^2 and 0.0215 μmol/min * cm^2.
In the case of `O=C(c1ccc(OCCN2CCCCC2)cc1)c1c(-c2ccc(O)cc2)sc2cc(O)ccc12` [Hydrochloride, raloxifene hydrochloride, reference compound], the “intrinsic dissolution rate (IDR)” value in data set [1] (setting [5]) is given as 0.0022 μmol/min * cm^2; in data set [1] (setting [6]), 0.0026 μmol/min * cm^2; in data set [1] (setting [7]), 0.0022 μmol/min * cm^2; in data set [1] (setting [8]), 0.0022 μmol/min * cm^2; in data set [1] (setting [9]), 0.0044 μmol/min * cm^2. Besides, the dissolution evaluated visually entry was “all raloxifene hydrochloride seemed to be dissolved” in data set [2] (60 mg in 0.1 M phosphoric acid, similar test) and “Very little of the initial added amount of raloxifene hydrochloride was dissolved” in data set [2] (60 mg in one liter 0.1 M HCl, vigorously mixed, room temperature over night). In addition, in data set [3] (hydrochloride), the “solubility in aqueous solvents” value was “fairly soluble”. The “solubility in aqueous media comprising hydrochloric acid” value in data set [4] was “decreases significant”.
Take “[6-hydroxy-2-(4-hydroxyphenyl)benzo[b]thien-3-yl][4-[2-(1-piperidinyl)ethoxy]phenyl-, succinate”: the “intrinsic dissolution rate (IDR)” value was 0.0550 μmol/min * cm^2 in data set [1] (setting [5]); 0.0228 μmol/min * cm^2 in data set [1] (setting [6]); 0.0271 μmol/min * cm^2 in data set [1] (setting [7]); 0.0127 μmol/min * cm^2 in data set [1] (setting [8]); 0.0119 μmol/min * cm^2 in data set [1] (setting [9]).
On the same counts, the results for `O=C(O)CC(=O)O.O=C(c1ccc(OCCN2CCCCC2)cc1)c1c(-c2ccc(O)cc2)sc2cc(O)ccc12` [Malonate] are 0.0229 μmol/min * cm^2, 0.0173 μmol/min * cm^2, 0.0148 μmol/min * cm^2, 0.0136 μmol/min * cm^2 and 0.0112 μmol/min * cm^2.
Turning to `O=C(c1ccc(OCCN2CCCCC2)cc1)c1c(-c2ccc(O)cc2)sc2cc(O)ccc12` [raloxifene as free base, 6-hydroxy-2-(4-hydrophenyl)-3-[4-(2-piperidinoethoxy)-benzoyl]benzo-[b]-thiophene], the “solubility in aqueous solvents” value in data set [3] was “only sparingly soluble”.
For `C[C@H](O)C(=O)O.O=C(c1ccc(OCCN2CCCCC2)cc1)c1c(-c2ccc(O)cc2)sc2cc(O)ccc12` [L-lactate hemihydrate], the “intrinsic dissolution rate (IDR)” value is 0.0475 μmol/min * cm^2 in data set [1] (setting [5]); 0.0453 μmol/min * cm^2 in data set [1] (setting [6]); 0.0403 μmol/min * cm^2 in data set [1] (setting [7]); 0.0190 μmol/min * cm^2 in data set [1] (setting [8]); 0.0091 μmol/min * cm^2 in data set [1] (setting [9]).

The values are drawn from patent publication US7964734B2, “Raloxifene acid addition salts and/or solvates thereof, improved method for purification of said raloxifene acid addition salts and/or solvates thereof and pharmaceutical compositions comprising these” (A/S Gea Farmaceutisk Fabrik, priority 2002, dated 2011).
